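Values below derive from 48-hour exposures of cells grown in 96-well plates, with endpoints linearly interpolated between the two concentrations bracketing the appropriate inhibition level. Abbreviation: GI50, concentration required for 50% inhibition of growth. TGI: concentration producing complete growth inhibition.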
Legend:
Assay in all cases: NCI anticancer screen, dose series, 48 h
[1] = test system: 786-0 renal
[2] = test system: A498 renal
[3] = test system: A549 NSCLC
[4] = test system: ACHN renal
[5] = test system: BT-549 breast
[6] = test system: CAKI-1 renal
[7] = test system: CCRF-CEM leukemia
[8] = test system: COLO 205 colon
[9] = test system: DU-145 prostate
[10] = test system: EKVX NSCLC
[11] = test system: HCC-2998 colon
[12] = test system: HCT-116 colon
[13] = test system: HCT-15 colon
[14] = test system: HL-60(TB) leukemia
[15] = test system: HOP-62 NSCLC
[16] = test system: HOP-92 NSCLC
[17] = test system: HS 578T breast
[18] = test system: HT29 colon
[19] = test system: IGROV1 ovarian
[20] = test system: K-562 leukemia
[21] = test system: KM12 colon
[22] = test system: LOX IMVI melanoma
[23] = test system: M14 melanoma
[24] = test system: MALME-3M melanoma
[25] = test system: MCF7 breast
[26] = test system: MDA-MB-231 breast
[27] = test system: MDA-MB-435
[28] = test system: MOLT-4 leukemia
[29] = test system: NCI-H226 lung
[30] = test system: NCI-H23 lung
[31] = test system: NCI-H460 lung
[32] = test system: NCI-H522 lung
[33] = test system: NCI/ADR-RES ovarian
[34] = test system: OVCAR-4 ovarian
[35] = test system: OVCAR-5 ovarian
[36] = test system: OVCAR-8 ovarian
[37] = test system: PC-3 prostate
[38] = test system: RPMI-8226 leukemia
[39] = test system: RXF 393 renal
[40] = test system: SF-268 CNS
[41] = test system: SF-295 CNS
[42] = test system: SF-539 CNS
[43] = test system: SK-MEL-2 melanoma
[44] = test system: SK-MEL-28 melanoma
[45] = test system: SK-MEL-5 melanoma
[46] = test system: SK-OV-3 ovarian
[47] = test system: SN12C renal
[48] = test system: SNB-19 CNS
[49] = test system: SW-620 colon
[50] = test system: T-47D breast
[51] = test system: TK-10 renal
[52] = test system: U251 CNS
[53] = test system: UACC-257 melanoma
[54] = test system: UACC-62 melanoma
[55] = test system: UO-31 renal

SMILES: O=C(CCCCCCNC(=O)c1csc(Br)n1)NO
- GI50 [1]: 2440 nM
- TGI [1]: > 33300 nM
- GI50 [2]: 676 nM
- TGI [2]: 2080 nM
- GI50 [3]: 1350 nM
- TGI [3]: 14400 nM
- GI50 [4]: 1180 nM
- TGI [4]: 7530 nM
- GI50 [5]: 3050 nM
- TGI [5]: > 33300 nM
- GI50 [6]: 1120 nM
- TGI [6]: 8220 nM
- GI50 [7]: 1060 nM
- TGI [7]: > 33300 nM
- GI50 [8]: 700 nM
- TGI [8]: 1780 nM
- GI50 [9]: 1210 nM
- TGI [9]: > 33300 nM
- GI50 [10]: 1990 nM
- TGI [10]: > 33300 nM
- GI50 [11]: 3400 nM
- TGI [11]: 13100 nM
- GI50 [12]: 892 nM
- TGI [12]: 3780 nM
- GI50 [13]: 2160 nM
- TGI [13]: > 33300 nM
- GI50 [14]: 1270 nM
- TGI [14]: > 33300 nM
- GI50 [15]: 1410 nM
- TGI [15]: > 33300 nM
- GI50 [16]: 706 nM
- TGI [16]: 2240 nM
- GI50 [17]: 917 nM
- TGI [17]: 22100 nM
- GI50 [18]: 985 nM
- TGI [18]: 5560 nM
- GI50 [19]: 1690 nM
- TGI [19]: > 33300 nM
- GI50 [20]: 1130 nM
- TGI [20]: > 33300 nM
- GI50 [21]: 2750 nM
- TGI [21]: > 33300 nM
- GI50 [22]: 47.3 nM
- TGI [22]: 3790 nM
- GI50 [23]: 1640 nM
- TGI [23]: > 33300 nM
- GI50 [24]: 787 nM
- TGI [24]: > 33300 nM
- GI50 [25]: 1410 nM
- TGI [25]: > 33300 nM
- GI50 [26]: 2010 nM
- TGI [26]: > 33300 nM
- GI50 [27]: 1050 nM
- TGI [27]: 6300 nM
- GI50 [28]: 1020 nM
- TGI [28]: > 33300 nM
- GI50 [29]: 5170 nM
- TGI [29]: > 33300 nM
- GI50 [30]: 1900 nM
- TGI [30]: > 33300 nM
- GI50 [31]: 1250 nM
- TGI [31]: > 33300 nM
- GI50 [32]: 844 nM
- TGI [32]: 5090 nM
- GI50 [33]: 694 nM
- TGI [33]: 2500 nM
- GI50 [34]: 3650 nM
- TGI [34]: > 33300 nM
- GI50 [35]: 1160 nM
- TGI [35]: > 33300 nM
- GI50 [36]: 961 nM
- TGI [36]: 9580 nM
- GI50 [37]: 2430 nM
- TGI [37]: > 33300 nM
- GI50 [38]: 951 nM
- TGI [38]: 13400 nM
- GI50 [39]: 929 nM
- TGI [39]: 3110 nM
- GI50 [40]: 2430 nM
- TGI [40]: > 33300 nM
- GI50 [41]: 1660 nM
- TGI [41]: 9370 nM
- GI50 [42]: 1620 nM
- TGI [42]: > 33300 nM
- GI50 [43]: 1180 nM
- TGI [43]: 6730 nM
- GI50 [44]: 1290 nM
- TGI [44]: > 33300 nM
- GI50 [45]: 1240 nM
- TGI [45]: 4900 nM
- GI50 [46]: 1040 nM
- TGI [46]: 5430 nM
- GI50 [47]: 2950 nM
- TGI [47]: > 33300 nM
- GI50 [48]: 3200 nM
- TGI [48]: > 33300 nM
- GI50 [49]: 637 nM
- TGI [49]: 1580 nM
- GI50 [50]: 648 nM
- TGI [50]: 1830 nM
- GI50 [51]: 619 nM
- TGI [51]: 2550 nM
- GI50 [52]: 1530 nM
- TGI [52]: 7230 nM
- GI50 [53]: 853 nM
- TGI [53]: 3330 nM
- GI50 [54]: 699 nM
- TGI [54]: 2500 nM
- GI50 [55]: 1120 nM
- TGI [55]: > 33300 nM

Source: PubChem BioAssay (NCI)
